From patent US7358359B2, “Antibacterial agents” (University of Washington, priority 2003, dated 2008)
≈ marks a conversion by molar mass, not a printed value. Read-outs that look alike come from different tables or passages of the source.

Tests used:
Serratia marcescens = experiment: MIC vs enteric organisms: Serratia marcescens; type: cell-based; settings: S. marc., MIC key class
Experimental: (§1) Bacterial isolates were cultivated from −70° C. frozen stocks by two consecutive overnight passages at 35° C. in ambient air on 5% blood agar (Remel, Lenexa, Kans.). Clinical isolates tested were from a collection composed of isolates collected during clinical trials and recent clinical isolates obtained from various geographically diverse hospitals in the US. Quality control and primary panel strains were from the American Type Culture Collection (ATCC; Rockville, Md.), with the exception of P. aeruginosa PAO200, a strain with a deletion of the mexABoprM genes that was received from Dr. H. Schweizer.
(§2) Minimum Inhibitory Concentrations (MICs) were determined by the broth microdilution method in accordance with the National Committee for Clinical Laboratory Standards (NCCLS) guidelines. In brief, organism suspensions were are adjusted to a 0.5 McFarland standard to yield a final inoculum between 3×10^5 and 7×10^5 colony-forming units (CFU)/mL. Drug dilutions and inocula were made in sterile, cation adjusted Mueller-Hinton Broth (Remel). An inoculum volume of 100 μl was added to wells containing 100 μl of broth with 2-fold serial dilutions of drug. All inoculated microdilution trays were incubated in ambient air at 35° C. for 18-24 hours. Following incubation, the lowest concentration of the drug that prevented visible growth was recorded as the MIC.

Alcaligenes xylosoxidans = experiment: MIC vs non-fermenting organisms: Alcaligenes xylosoxidans; type: cell-based; settings: Achromobacter xylosoxidans; Alcal. xyl; MIC key class
Experimental: as §1, §2

Burkholderia cepacia = experiment: MIC vs non-fermenting organisms: Burkholderia cepacia; type: cell-based; settings: Burkholderia cepacia, B. cepacia; MIC key class; read-out: MIC
Experimental: as §1, §2

[1] = tested on: Pseudomonas aeruginosa cystic fibrosis isolate 1145; experiment: microbe, parasite or virus in culture; type: cell-based
Experimental: as §1, §2

[2] = tested on: Pseudomonas aeruginosa cystic fibrosis isolate 3206; experiment: microbe, parasite or virus in culture; type: cell-based
Experimental: as §1, §2

Klebsiella oxytoca = experiment: MIC vs enteric organisms: Klebsiella oxytoca; type: cell-based; settings: K. oxy., MIC key class
Experimental: as §1, §2

P. aeruginosa 27853 = experiment: MIC broth microdilution, standard panel: P. aeruginosa 27853; type: cell-based; settings: Pseudomonas aeruginosa, standard panel of organisms
Experimental: as §1, with “Schweizer. […] Strain Z61 (ATCC 35151) is also hypersusceptible to antibacterials. It is thought that the hypersusceptibility of this strain is the result of increased permeability of its outer membrane (Angus B L et al, Antimicrobial Agents and Chemotherapy 1982 21,299-309: Outer membrane permeability in Pseudomonas aeruginosa: Comparison of a wild-type with an antibacterial-supersusceptible mutant).” for “Schweizer.”
as §2, with “MIC. Performance of the assay was monitored by the use of laboratory quality-control strains against tobramycin, that has a defined MIC spectrum, in accordance with NCCLS guidelines.” for “MIC.”

[3] = tested on: Stenotrophomonas maltophilia; experiment: MIC vs non-fermenting organisms: Stenotrophomonas maltophilia; type: cell-based; settings: Stenotrophomonas maltophilia, S. malt.; MIC key class; read-out: MIC
Experimental: as §1, §2

E. coli 25922 = experiment: MIC broth microdilution, standard panel: E. coli 25922; type: cell-based; settings: Escherichia coli, standard panel of organisms
Experimental: as §1, with “Schweizer. […] Strain Z61 (ATCC 35151) is also hypersusceptible to antibacterials. It is thought that the hypersusceptibility of this strain is the result of increased permeability of its outer membrane (Angus B L et al, Antimicrobial Agents and Chemotherapy 1982 21,299-309: Outer membrane permeability in Pseudomonas aeruginosa: Comparison of a wild-type with an antibacterial-supersusceptible mutant).” for “Schweizer.”
as §2, with “MIC. Performance of the assay was monitored by the use of laboratory quality-control strains against tobramycin, that has a defined MIC spectrum, in accordance with NCCLS guidelines.” for “MIC.”

P. aeruginosa LpxC = target: T1, P. aeruginosa LpxC (Pseudomonas aeruginosa, UniProt P47205); experiment: P. aeruginosa LpxC Inhibition Assay; type: biochemical
T1 sequence (P47205 1-303): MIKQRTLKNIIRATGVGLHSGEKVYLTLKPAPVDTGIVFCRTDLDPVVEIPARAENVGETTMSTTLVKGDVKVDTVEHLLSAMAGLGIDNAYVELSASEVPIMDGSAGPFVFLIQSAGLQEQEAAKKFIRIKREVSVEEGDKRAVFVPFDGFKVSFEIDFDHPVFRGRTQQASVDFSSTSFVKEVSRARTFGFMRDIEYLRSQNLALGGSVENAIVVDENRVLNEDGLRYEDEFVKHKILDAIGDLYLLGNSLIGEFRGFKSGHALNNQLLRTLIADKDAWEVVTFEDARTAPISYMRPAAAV
Experimental: The assay followed the general method of Hyland et al (Journal of Bacteriology 1997 179, 2029-2037: Cloning, expression and purification of UDP-3-O-acyl-GlcNAc deacetylase from Pseudomonas aeruginosa: a metalloamidase of the lipid A biosynthesis pathway) and the radiolabeling procedure is according to Kline et al. supra. Briefly, samples were incubated with 2 nM P. aeruginosa LpxC and 150 nM [3H-Ac]-UDP-3-OR-3-hydroxydecanoyl)-GlcNAc in a total volume of 50 uL for 90 min at room temperature. Reactions were carried out in 96-well polypropylene plates in 50 mM sodium phosphate buffer, pH 7.5, containing 1 mg/mL BSA. Reactions were stopped by the addition of 180 uL of a 3% suspension of activated charcoal powder in 100 mM sodium acetate, pH 7.5. Supernatants were clarified by centrifugation. A portion of the clarified supernatant, containing the enzymatically released [3H]-acetate, was transferred to opaque white 96-well plates containing scintillation fluid. The radioactivity was measured in a Perkin-Elmer/Wallac Trilux Microbeta counter.

Enterobacter aerogenes = experiment: MIC vs enteric organisms: Enterobacter aerogenes; type: cell-based; settings: Klebsiella aerogenes; E. aer.; MIC key class
Experimental: as §1, §2

[4] = tested on: Pseudomonas aeruginosa cystic fibrosis isolate 3198; experiment: MIC vs cystic fibrosis isolate of P. aeruginosa 3198 (sensitive to most antibacterials); type: cell-based; settings: strain 3198, Sensitive, LpxC inhibitors, MIC key class
Experimental: as §1, §2

[5] = tested on: Pseudomonas aeruginosa cystic fibrosis isolate 3317; experiment: MIC vs cystic fibrosis isolate of P. aeruginosa 3317 (resistant to aztreonam); type: cell-based; settings: strain 3317, Aztr. R, LpxC inhibitors, MIC key class
Experimental: as §1, §2

[6] = tested on: Pseudomonas aeruginosa cystic fibrosis isolate 3224; experiment: MIC vs cystic fibrosis isolate of P. aeruginosa 3224; type: cell-based; settings: strain 3224, Tobra R, LpxC inhibitors, MIC key class
Experimental: as §1, §2

Proteus mirabilis = experiment: MIC vs enteric organisms: Proteus mirabilis; type: cell-based; settings: P. mir., MIC key class
Experimental: as §1, §2

[7] = strain 1145, MDR, LpxC inhibitors, MIC key class, read-out: MIC
[8] = strain 3206, MDR, LpxC inhibitors, MIC key class, read-out: MIC
[9] = 2 nM P. aeruginosa LpxC, 90 min, room temperature, read-out: IC50 (nM), Enzyme inhibitory activity

Structure (SMILES) | MIC (Serratia marcescens) [µg/mL] | MIC (Alcaligenes xylosoxidans) [µg/mL] | MIC (Burkholderia cepacia) [µg/mL] | MIC [1, 7] [µg/mL] | MIC [2, 8] [µg/mL] | MIC (Klebsiella oxytoca) [µg/mL] | MIC (P. aeruginosa 27853) [µg/mL] | MIC [3] [µg/mL] | MIC (E. coli 25922) [µg/mL] | IC50 (P. aeruginosa LpxC) [nM] | MIC (Enterobacter aerogenes) [µg/mL] | MIC [4] [µg/mL] | MIC [5] [µg/mL] | MIC [6] [µg/mL] | MIC (Proteus mirabilis) [µg/mL] | IC50 (P. aeruginosa LpxC; [9]) [nM] | MIC [1] [µg/mL] | MIC [2] [µg/mL]
C[C@@H](N)[C@H](NC(=O)c1ccc(C#Cc2ccccc2)cc1)C(=O)NO [Example 13] | < 6.25 | < 6.25 | < 6.25 | < 6.25 | < 6.25 | < 6.25 | < 6.25 | 6.25 to 50 (≈ 18.5 to 148 µM) | < 6.25 | < 100 | > 50 | < 6.25 | < 6.25 | < 6.25 | < 6.25 | – | – | –
C[C@@H](O)[C@H](NC(=O)c1ccc(C#CC#Cc2ccc(NC(=O)CNc3ccccc3)cc2)cc1)C(=O)NO [Example 777, N-{(1S,2R)-2-hydroxy-1-[(hydroxyamino)carbonyl]propyl}-4-[4-(4-{[(phenylamino)acetyl]amino}phenyl)buta-1,3-diynyl]benzamide] | < 6.25 | 6.25 to 50 (≈ 12.2 to 97.9 µM) | < 6.25 | < 6.25 | < 6.25 | < 6.25 | < 6.25 | > 50 | < 6.25 | – | 6.25 to 50 (≈ 12.2 to 97.9 µM) | < 6.25 | < 6.25 | < 6.25 | < 6.25 | < 100 | – | –
C[C@@H](O)[C@H](NC(=O)c1ccc(C#Cc2ccccc2)cc1)C(=O)NO [Example 12, N-(1-(N-hydroxycarbamoyl)(1S,2R)-2-hydroxypropyl)[4-(2-phenylethynyl)phenyl]carboxamide] | < 6.25 | < 6.25 | 6.25 to 50 (≈ 18.5 to 148 µM) | – | – | < 6.25 | < 6.25 | < 6.25 | < 6.25 | < 100 | > 50 | < 6.25 | < 6.25 | < 6.25 | < 6.25 | – | < 6.25 | < 6.25
NC[C@H](NC(=O)c1ccc(C#Cc2ccc(NC(=O)CNC3CC3)cc2)cc1)C(=O)NO [Example 516, N-[(1S)-1-(aminomethyl)-2-(hydroxyamino)-2-oxoethyl]-4-[(4-{[(cyclopropylamino)acetyl]amino}phenyl)ethynyl]benzamide] | < 6.25 | > 50 | > 50 | < 6.25 | < 6.25 | > 50 | < 6.25 | > 50 | < 6.25 | – | > 50 | < 6.25 | < 6.25 | < 6.25 | > 50 | < 100 | – | –
